The source of these data is patent US7846956B2, “Malononitrile compound as pesticides” (Sumitomo Chemical Company, Limited, priority 2004, dated 2010).

Common to all, as to assay type: in vivo
One assay has as its system Musca domestics. Put plainly: Experimental Example 3: filter paper test with sucrose bait, death rate of Musca domestics. The following applies: 500 ppm active ingredient, 0.7 ml on filter paper, 10 female imagoes, after 24 hours, read-out: death rate of the pest. Here is the method:
Preparations of the present compounds (1), (2), (3), (4), (5), (6), (8), (9), (10), (11), (12), (13), (14), (15), (16), (17), (18), (19), (21), (22), (23), (24), (25), (26), (27), (31), (34), (35), (36), (37), (38), (39), (40), (42), (47), (50), (52), (54), (66), (67) and (68) obtained according to Formulation Example 5 were diluted with water so that the active ingredient concentration was 500 ppm to prepare experimental pesticidal solutions.
A filter paper having a diameter of 5.5 cm was spread on the bottom of a polyethylene cup having a diameter of 5.5 cm and 0.7 ml of the experimental pesticidal solution was added dropwise onto the filter paper. As a bait 30 mg of sucrose was uniformly placed on the filter paper. Into the polyethylene cup, 10 female Musca domestics imagoes were released and the cup was sealed with a lid. After 24 hours, the number of surviving Musca domestics was examined and the death rate of the pest was calculated.

For the next assay, the system named is Blattalla germanica. The experiment in a line: Experimental Example 4: filter paper test with sucrose bait, death rate of Blattalla germanica. As to conditions: 144 h; 500 ppm active ingredient, 0.7 ml on filter paper; two male imagoes; after 6 days. On the procedure: Preparations of the present compounds (2), (4), (5), (6), (8), (9), (11), (12), (13), (15), (17), (18), (19), (21), (24), (25), (26), (27), (35), (36), (37), (38), (40), (41), (42), (47), (50), (52), (54), (62), (64), (65), (66) and (68) obtained according to Formulation Example 5 were diluted with water so that the active ingredient concentration was 500 ppm to prepare experimental pesticidal solutions.
A filter paper having a diameter of 5.5 cm was spread on the bottom of a polyethylene cup having a diameter of 5.5 cm and 0.7 ml of the experimental pesticidal solution was added dropwise onto the filter paper. As a bait 30 mg of sucrose was uniformly placed on the filter paper. Into the polyethylene cup, two male Blattalla gexmanica images were released and the cup was sealed with a lid. After 6 days, the number of surviving Blattalla germanica was examined and the death rate of the pest was calculated.

For the next assay, the system named is Culex pipiens pallens. Put plainly: Experimental Example 5: larvae in treated water, death rate of Culex pipiens pallens. The following applies: 24 h, active ingredient concentration 3.5 ppm in water, 20 last-instar larvae, after one day, read-out: death rate of the pest. Here is the method: Preparations of the present compounds (1), (2), (4), (5), (6), (8), (9), (11), (12), (13), (14), (15), (16), (17), (18), (19), (21), (22), (23), (24), (25), (26), (27), (31), (33), (34), (35), (36), (37), (38), (39), (40), (42), (43), (47), (48), (50), (52), (53), (54), (62), (64), (65), (66), (67), (68) and (70) obtained according to Formulation Example 5 were diluted with water so that the active ingredient concentration was 500 ppm to prepare experimental pesticidal solutions.
0.7 ml of the experimental pesticidal solution was added to 100 mL of ion-exchanged water (active ingredient concentration: 3.5 ppm). Into the solution, 20 last-instar larvae of Culex pipiens pallens were released. After one day, the surviving number was examined and the death rate of the pest was calculated.

Take `C#CCOc1ncc(CC(C#N)(C#N)CCC(F)(F)F)s1` [present compound (19)]: the values for the pest or weed control at 500 ppm with Musca domestics and with Blattalla germanica were ≥ 90% and 100%, respectively. In the assay with Culex pipiens pallens, the pest or weed control at 3.5 ppm was ≥ 95%.
The like results for `CC(C)(C)c1nc(CC(C#N)(C#N)CCC(F)(F)F)cs1` [present compound (12)] were, in that order, ≥ 90%, 100% and ≥ 95%.
Consider `Cc1ncc(CC(C#N)(C#N)CCC(F)(F)F)s1` [present compound (15)], for which the pest or weed control at 500 ppm with Musca domestics was ≥ 90%; in the assay with Blattalla germanica, 100%. In the assay with Culex pipiens pallens, the pest or weed control at 3.5 ppm was ≥ 95%.
The like results for `CC(c1cnn(C(C)(C)C)c1)C(C#N)(C#N)CCC(F)(F)F` (stereo not drawn) [present compound (27)] were, in that order, ≥ 90%, 100% and ≥ 95%.
Turning to `CC(C)(C)c1cc(CC(C#N)(C#N)CCC(F)(F)F)no1` [present compound (6)], the pest or weed control at 500 ppm in the assay on Musca domestics was ≥ 90%; in the assay on Blattalla germanica, 100%. Further, the pest or weed control at 3.5 ppm in the assay on Culex pipiens pallens was ≥ 95%.
The like results for `CC(C)(C)c1nc(CC(C#N)(C#N)CCC(F)(F)F)no1` [present compound (24)] were, in that order, ≥ 90%, 100% and ≥ 95%.
The matching figures for `CC(C)c1cc(CC(C#N)(C#N)CCC(F)(F)F)no1` [present compound (40)]: ≥ 90%, 100% and ≥ 95%.
The matching figures for `CC1(c2nc(CC(C#N)(C#N)CCC(F)(F)F)no2)CC1` [present compound (25)]: ≥ 90%, 100% and ≥ 95%.
As for `N#CC(C#N)(CCC(F)(F)F)Cc1cc(C(F)F)on1` [present compound (47)], the figures for the pest or weed control at 500 ppm in the assay on Musca domestics and in the assay with Blattalla germanica were ≥ 90% and 100%, respectively. In addition, the pest or weed control at 3.5 ppm in the assay with Culex pipiens pallens was ≥ 95%.
The like results for `CC(c1cc(C(C)(C)C)on1)C(C#N)(C#N)CCC(F)(F)F` (stereo not drawn) [present compound (42)] were, in that order, ≥ 90%, 100% and ≥ 95%.
The like results for `CC(C)(C)Cc1nc(CC(C#N)(C#N)CCC(F)(F)F)no1` [present compound (26)] were, in that order, ≥ 90%, 100% and ≥ 95%.
The matching figures for `CC(C)(C)c1nsc(CC(C#N)(C#N)CCC(F)(F)F)n1` [present compound (21)]: ≥ 90%, 100% and ≥ 95%.
Turning to `Cn1nc(C(C)(C)C)cc1CC(C#N)(C#N)CCC(F)(F)F` [present compound (2)], the pest or weed control at 500 ppm in the assay with Musca domestics is ≥ 90%; in the assay with Blattalla germanica, 100%. In addition, the pest or weed control at 3.5 ppm in the assay with Culex pipiens pallens is ≥ 95%.
